Measurements reported in publication PMC5777239 (Science signaling, 2017).

Legend:
[1] = system: RXRA (Gal4-RXRA reporter); experiment: Gal4-RXRA UAS-GFP Kit+ reporter cells treated with plasma from treated mice; assay type: in vivo, mouse; conditions: Kit+ cells transduced with Gal4-RXRA, plasma from mice exposed to the agent
RXRA [2] = target: T1, RXRA (Homo sapiens, UniProt P19793); conditions: cited from earlier work
T1 sequence (P19793 1-462): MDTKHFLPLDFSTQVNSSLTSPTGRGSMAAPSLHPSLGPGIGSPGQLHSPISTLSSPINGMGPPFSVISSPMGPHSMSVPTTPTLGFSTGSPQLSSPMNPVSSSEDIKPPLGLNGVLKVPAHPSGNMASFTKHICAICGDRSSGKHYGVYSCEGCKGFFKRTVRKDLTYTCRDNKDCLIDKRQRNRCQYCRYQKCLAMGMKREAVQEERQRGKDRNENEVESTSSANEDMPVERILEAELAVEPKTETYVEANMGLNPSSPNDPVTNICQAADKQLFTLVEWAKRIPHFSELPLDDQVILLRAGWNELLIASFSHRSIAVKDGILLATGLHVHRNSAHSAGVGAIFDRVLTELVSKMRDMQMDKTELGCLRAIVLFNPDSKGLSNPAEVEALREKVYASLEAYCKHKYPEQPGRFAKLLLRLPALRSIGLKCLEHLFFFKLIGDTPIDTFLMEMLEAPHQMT

[3] = target: T2, RXRA (Gal4-DBD fused to RXRA-LBD) (Homo sapiens, UniProt P19793); assay type: cell-based, mouse; conditions: primary UAS-GFP Kit+ cells transduced with Gal4-RXRA; synthesized fatty acids
T2 sequence (P19793 227-458 limits assumed): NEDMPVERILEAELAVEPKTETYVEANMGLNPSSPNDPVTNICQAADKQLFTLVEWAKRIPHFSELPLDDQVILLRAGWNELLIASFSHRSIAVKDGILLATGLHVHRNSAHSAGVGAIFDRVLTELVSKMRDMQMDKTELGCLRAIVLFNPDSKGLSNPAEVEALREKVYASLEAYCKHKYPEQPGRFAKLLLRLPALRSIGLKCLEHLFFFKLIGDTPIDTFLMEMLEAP

RXR alpha LBD-GST [4] = target: T3, RXR alpha LBD-GST (Homo sapiens, UniProt P19793); experiment: LanthaScreen TR-FRET Retinoic X Receptor alpha Coactivator assay; assay type: biochemical
T3 sequence (P19793 227-458 limits assumed): T2 sequence (P19793 227-458 limits assumed)

Flag-Gal4 DBD-RXRA LBD = target: T4, Flag-Gal4 DBD-RXRA LBD (Homo sapiens, UniProt P19793); assay type: binding; conditions: 293T-FXP cells treated with serum up to 24 hours
T4 sequence (P19793 227-458 limits assumed): T2 sequence (P19793 227-458 limits assumed)

RXRA [5] = target: T1, RXRA; experiment: DR1x3-TK-Luc luciferase reporter in 293T cells with full-length RXRA; assay type: cell-based; conditions: 40 hour incubation
[6] = system: mouse hematopoietic cells; assay type: in vivo; conditions: after PHZ treatment, mass spectrometry
[7] = system: RXRA (Gal4-RXRA reporter); assay type: in vivo, mouse; conditions: for proportion of GFP+mCherry+ cells in total bone marrow cells / single cell abundance of GFP, mean fluorescence intensity (MFI): Gal4-RXRA transplanted mice; for proportion of GFP+mCherry+ cells in total bone marrow cells: compared to mice without treatment; for single cell abundance of GFP, mean fluorescence intensity (MFI): whole bone marrow cells
RXR alpha LBD-GST [8] = experiment: FRET or BRET

O=c1[nH]cc(F)c(=O)[nH]1 [5-FU, 5-fluoruracil]
UAS-GFP reporter output with plasma from treated mice [1]: did not observe an increase

CCCCC/C=C\C/C=C\C/C=C\C/C=C\CCCC(=O)O [AA, arachidonic acid]
activation of RXRA in vitro (luciferase reporter) (RXRA [2]): activate RXRA in vitro

CC/C=C\C/C=C\C/C=C\C/C=C\C/C=C\CCCCCCCC(=O)O [C24:4, (9Z, 12Z, 15Z, 18Z, 21Z)-tetracosa-9,12,15,18,21-tetraenoic acid]
activation of the GFP reporter [3]: did not activate the GFP reporter
binding of PGC1 and D22 co-activator peptides (TR-FRET) (RXR alpha LBD-GST [4]): did not lead to binding of either PGC1 or D22
binding to Flag-Gal4-RXRA in pull-down (MS) (Flag-Gal4 DBD-RXRA LBD): bound to RXRA in a time-dependent manner

CC/C=C\C/C=C\C/C=C\C/C=C\C/C=C\CCCCCCCC(=O)O [C24:5, (9Z, 12Z, 15Z, 18Z, 21Z)-tetracosa-9,12,15,18,21-pentaenoic acid]
activation of DR1-luciferase reporter (RXRA [5]): could activate a DR1-luciferase reporter
binding of PGC1 and D22 co-activator peptides (TR-FRET) (RXR alpha LBD-GST [4]): induced dose-dependent binding of both PGC1 and D22 peptides
binding to Flag-Gal4-RXRA in pull-down (MS) (Flag-Gal4 DBD-RXRA LBD): bound to RXRA in a time-dependent manner

CC/C=C\C/C=C\C/C=C\C/C=C\C/C=C\C/C=C\CCC(=O)O [DHA, docosahexaenoic acid]
activation of RXRA in vitro (luciferase reporter) (RXRA [2]): activate RXRA in vitro
binding to Flag-Gal4-RXRA in pull-down (MS) (Flag-Gal4 DBD-RXRA LBD): bound to RXRA in a time-dependent manner

CC/C=C\C/C=C\C/C=C\C/C=C\C/C=C\CCCCCC(=O)O [DPA, docosapentaenoic acid]
activation of RXRA in vitro (luciferase reporter) (RXRA [2]): activate RXRA in vitro

NNc1ccccc1 [PHZ, phenylhydrazine]
concentrations of fatty acids C24:4 and C24:5 in bone marrow cells [6]: increased two-fold
concentrations of fatty acids C24:4 and C24:5 in peripheral blood cells [6]: increased three-fold
UAS-GFP reporter output with plasma from treated mice [1]: increased
proportion of GFP+mCherry+ cells in total bone marrow cells [7]: increase
single cell abundance of GFP, mean fluorescence intensity (MFI) [7]: increased
WBC peak following treatment ([7]; granulopoiesis following PHZ treatment): 18-22,000 /μl

Fluorescein-PGC1α peptide
EC50 of the ligand C24:5 for induced binding of the peptide (RXR alpha LBD-GST [8]): 94 nM
EC50 of the ligand DHA for induced binding of the peptide (RXR alpha LBD-GST [8]): 86 nM

B1: granulocyte colony stimulating factor (protein, UniProt P09919 31-207, looked up)
Granulocyte …: TPLGPASSLPQSFLLKCLEQVRKIQGDGAALQEKLVSECATYKLCHPEELVLLGHSLGIPWAPLSSCPSQALQLAGCLSQLHSGLFLYQGLLQALEGISPELGPTLDTLQLDVADFATTIWQQMEELGMAPALQPTQGAMPAFASAFQRRAGGVLVASHLQSFLEVSYRVLRHLAQP
UAS-GFP reporter output with plasma from treated mice [1]: increased
proportion of GFP+mCherry+ cells in total bone marrow cells [7]: increase
single cell abundance of GFP, mean fluorescence intensity (MFI) [7]: increased
